Conditions: Liquid, Vibrating tube method

CCCC[n+]1ccccc1.O=S(=O)([O-])C(F)(F)F [1-butylpyridinium trifluoromethanesulfonate]
mass density [kg/m3]
Conditions | 303.15 K | 308.15 K | 313.15 K | 318.15 K | 323.15 K | 328.15 K | 333.15 K
100 kPa | 1311.77 | 1307.87 | 1303.91 | 1299.91 | 1296.31 | 1292.18 | 1288.27
5000 kPa | 1314.63 | 1310.78 | 1306.89 | 1303.07 | 1298.89 | 1295.18 | 1291.41
10000 kPa | 1317.44 | 1313.65 | 1309.74 | 1305.66 | 1302.15 | 1298.11 | 1294.46
15000 kPa | 1320.2 | 1316.6 | 1312.65 | 1308.66 | 1304.98 | 1301.2 | 1297.41
20000 kPa | 1322.82 | 1319.24 | 1315.17 | 1311.4 | 1307.88 | 1304.07 | 1300.4
25000 kPa | 1325.53 | 1321.85 | 1317.99 | 1314.14 | 1310.7 | 1306.75 | 1303.31
30000 kPa | 1328.06 | 1324.38 | 1320.63 | 1316.74 | 1313.34 | 1309.49 | 1306.06
35000 kPa | 1330.48 | 1326.93 | 1323.08 | 1319.52 | 1315.79 | 1312.17 | 1308.77
40000 kPa | 1332.93 | 1329.48 | 1325.67 | 1322.07 | 1318.44 | 1314.65 | 1311.33
45000 kPa | 1335.28 | 1331.89 | 1328.04 | 1324.29 | 1321.03 | 1317.18 | 1313.93
50000 kPa | 1337.67 | 1333.97 | 1330.42 | 1326.61 | 1323.34 | 1319.65 | 1316.36
55000 kPa | 1339.98 | 1336.34 | 1332.73 | 1328.88 | 1325.68 | 1322 | 1318.77
60000 kPa | 1342.03 | 1338.51 | 1334.95 | 1331.4 | 1328.01 | 1324.3 | 1320.81
65000 kPa | 1344.13 | 1340.54 | 1337.08 | 1333.55 | 1330.03 | 1326.69 | 1323.38

CCCCCCCC[n+]1cccc(C)c1.F[B-](F)(F)F [N-octyl-3-methylpyridinium tetrafluoroborate]
Conditions | mass density [kg/m3]
283.15 K, 100 kPa | 1106.25
283.15 K, 5000 kPa | 1108.56
283.15 K, 10000 kPa | 1110.95
283.15 K, 15000 kPa | 1113.26
283.15 K, 20000 kPa | 1115.53
283.15 K, 25000 kPa | 1117.71
283.15 K, 30000 kPa | 1119.8
283.15 K, 35000 kPa | 1121.93
283.15 K, 40000 kPa | 1123.9
283.15 K, 45000 kPa | 1125.95
283.15 K, 50000 kPa | 1127.8
283.15 K, 55000 kPa | 1129.77
283.15 K, 60000 kPa | 1131.58
283.15 K, 65000 kPa | 1133.37
288.15 K, 100 kPa | 1102.88
288.15 K, 5000 kPa | 1105.22
288.15 K, 10000 kPa | 1107.61
288.15 K, 15000 kPa | 1109.98
288.15 K, 20000 kPa | 1112.32
288.15 K, 25000 kPa | 1114.52
288.15 K, 30000 kPa | 1116.64
288.15 K, 35000 kPa | 1118.71
288.15 K, 40000 kPa | 1120.76
288.15 K, 45000 kPa | 1122.74
288.15 K, 50000 kPa | 1124.72
288.15 K, 55000 kPa | 1126.63
288.15 K, 60000 kPa | 1128.51
288.15 K, 65000 kPa | 1130.3
293.15 K, 100 kPa | 1099.53
293.15 K, 5000 kPa | 1102.06
293.15 K, 10000 kPa | 1104.51
293.15 K, 15000 kPa | 1106.86
293.15 K, 20000 kPa | 1109.18
293.15 K, 25000 kPa | 1111.4
293.15 K, 30000 kPa | 1113.56
293.15 K, 35000 kPa | 1115.81
293.15 K, 40000 kPa | 1117.82
293.15 K, 45000 kPa | 1119.87
293.15 K, 50000 kPa | 1121.88
293.15 K, 55000 kPa | 1123.82
293.15 K, 60000 kPa | 1125.67
293.15 K, 65000 kPa | 1127.47
298.15 K, 100 kPa | 1096.08
298.15 K, 5000 kPa | 1098.54
298.15 K, 10000 kPa | 1101.04
298.15 K, 15000 kPa | 1103.47
298.15 K, 20000 kPa | 1105.84
298.15 K, 25000 kPa | 1108.07
298.15 K, 30000 kPa | 1110.33
298.15 K, 35000 kPa | 1112.49
298.15 K, 40000 kPa | 1114.56
298.15 K, 45000 kPa | 1116.65
298.15 K, 50000 kPa | 1118.65
298.15 K, 55000 kPa | 1120.63
298.15 K, 60000 kPa | 1122.5
298.15 K, 65000 kPa | 1124.52
303.15 K, 100 kPa | 1092.83
303.15 K, 5000 kPa | 1095.28
303.15 K, 10000 kPa | 1097.84
303.15 K, 15000 kPa | 1100.3
303.15 K, 20000 kPa | 1102.65
303.15 K, 25000 kPa | 1104.99
303.15 K, 30000 kPa | 1107.32
303.15 K, 35000 kPa | 1109.47
303.15 K, 40000 kPa | 1111.6
303.15 K, 45000 kPa | 1113.68
303.15 K, 50000 kPa | 1115.8
303.15 K, 55000 kPa | 1117.71
303.15 K, 60000 kPa | 1119.7
303.15 K, 65000 kPa | 1121.56
308.15 K, 100 kPa | 1089.26
308.15 K, 5000 kPa | 1091.74
308.15 K, 10000 kPa | 1094.35
308.15 K, 15000 kPa | 1096.91
308.15 K, 20000 kPa | 1099.29
308.15 K, 25000 kPa | 1101.65
308.15 K, 30000 kPa | 1103.95
308.15 K, 35000 kPa | 1106.18
308.15 K, 40000 kPa | 1108.37
308.15 K, 45000 kPa | 1110.56
308.15 K, 50000 kPa | 1112.6
308.15 K, 55000 kPa | 1114.63
308.15 K, 60000 kPa | 1116.66
308.15 K, 65000 kPa | 1118.6
313.15 K, 100 kPa | 1085.88
313.15 K, 5000 kPa | 1088.47
313.15 K, 10000 kPa | 1091.09
313.15 K, 15000 kPa | 1093.69
313.15 K, 20000 kPa | 1096.09
313.15 K, 25000 kPa | 1098.54
313.15 K, 30000 kPa | 1100.84
313.15 K, 35000 kPa | 1103.14
313.15 K, 40000 kPa | 1105.37
313.15 K, 45000 kPa | 1107.51
313.15 K, 50000 kPa | 1109.66
313.15 K, 55000 kPa | 1111.71
313.15 K, 60000 kPa | 1113.7
313.15 K, 65000 kPa | 1115.65
318.15 K, 100 kPa | 1082.49
318.15 K, 5000 kPa | 1085.16
318.15 K, 10000 kPa | 1087.86
318.15 K, 15000 kPa | 1090.4
318.15 K, 20000 kPa | 1092.87
318.15 K, 25000 kPa | 1095.34
318.15 K, 30000 kPa | 1097.71
318.15 K, 35000 kPa | 1100
318.15 K, 40000 kPa | 1102.23
318.15 K, 45000 kPa | 1104.4
318.15 K, 50000 kPa | 1106.52
318.15 K, 55000 kPa | 1108.63
318.15 K, 60000 kPa | 1110.64
318.15 K, 65000 kPa | 1112.69
323.15 K, 100 kPa | 1079.26
323.15 K, 5000 kPa | 1082.03
323.15 K, 10000 kPa | 1084.69
323.15 K, 15000 kPa | 1087.27
323.15 K, 20000 kPa | 1089.69
323.15 K, 25000 kPa | 1092.26
323.15 K, 30000 kPa | 1094.65
323.15 K, 35000 kPa | 1096.93
323.15 K, 40000 kPa | 1099.23
323.15 K, 45000 kPa | 1101.43
323.15 K, 50000 kPa | 1103.63
323.15 K, 55000 kPa | 1105.69
323.15 K, 60000 kPa | 1107.78
323.15 K, 65000 kPa | 1109.77
328.15 K, 100 kPa | 1075.89
328.15 K, 5000 kPa | 1078.67
328.15 K, 10000 kPa | 1081.32
328.15 K, 15000 kPa | 1083.91
328.15 K, 20000 kPa | 1086.53
328.15 K, 25000 kPa | 1089.05
328.15 K, 30000 kPa | 1091.41
328.15 K, 35000 kPa | 1093.82
328.15 K, 40000 kPa | 1096.15
328.15 K, 45000 kPa | 1098.38
328.15 K, 50000 kPa | 1100.54
328.15 K, 55000 kPa | 1102.61
328.15 K, 60000 kPa | 1104.75
328.15 K, 65000 kPa | 1106.82
333.15 K, 100 kPa | 1072.64
333.15 K, 5000 kPa | 1075.39
333.15 K, 10000 kPa | 1078.24
333.15 K, 15000 kPa | 1080.9
333.15 K, 20000 kPa | 1083.46
333.15 K, 25000 kPa | 1086.03
333.15 K, 30000 kPa | 1088.48
333.15 K, 35000 kPa | 1090.88
333.15 K, 40000 kPa | 1093.31
333.15 K, 45000 kPa | 1095.48
333.15 K, 50000 kPa | 1097.71
333.15 K, 55000 kPa | 1099.8
333.15 K, 60000 kPa | 1101.97
333.15 K, 65000 kPa | 1104.05
